Assay results as given in patent US10953100B2, “Compounds and therapeutic uses thereof” (priority 2015, dated 2021).

Molecular target: Anti-alpha galactosyl IgG antibody
Assay: ELISA assay: streptavidin-captured biotin compound, binding of anti-alpha galactosyl IgG antibody
Set-up: species or system human
Settings: geometric mean with standard error in brackets; streptavidin plate, anti-alpha galactosyl IgG 0.5 μg/mL; read-out: Concentration at half maximal binding
Protocol: Compounds containing F (representing a carbohydrate molecule capable of binding to a human anti-alpha-galactosyl antibody) and L (as biotin) were assayed for binding at both ends of the compound using an enzyme-linked immunosorbent assay (ELISA). Streptavidin-coated plates captured biotin to the surface of the plate and the binding of anti-alpha galactosyl antibodies to the alpha-galactosyl moiety was reported by a secondary antibody labelled with HRP (Horse Radish Peroxidase).
Compounds were titrated 1.5 fold from a top dose of 50 nM in phosphate buffered saline (PBS) (Sigma D8537)+0.025% DMSO (Dimethyl Sulphoxide, Sigma D8418). Streptavidin immobilizer 96-well plates (nunc 436014) were coated with 100 μL of compound at room temperature for 2 hours shaking at 500 rpm. Plates were washed with 2×200 μL PBS-T (PBS with 0.05% Tween 20 (Sigma P9416)) and 1×200 μL PBS-T with a 5 minute incubation shaking at room temperature, prior to being blocked for 1 hour at room temperature with 1% Bovine Serum Albumin (BSA, Sigma A2153) in PBS-T. After removing the blocking buffer, 50 μL of Anti-alpha galactosyl IgG antibody (Anti-alpha-galactosyl antibody was purified from human IVIG (Gammagard) by affinity purification using an alpha-galactosyl-HSA (Human Serum Albumin) sepharose column by Rockland Immunochemicals Inc.) at 0.5 μg/mL in PBS-T+1% BSA and incubated shaking at room temperature for 1 hour.
Plates were washed 2×200 μL PBS-T and 3×200 μL PBS-T with a 5 minute incubation, shaking at room temperature before the addition of 50 μL 1:5000 Goat Anti-Human IgG-HRP (horseradish peroxidase) conjugate (Abcam ab97175). The plates were incubated shaking at room temperature for 1 hour before a final wash of 2×200 μL PBS-T and 3×200 μl PBS-T with a 5 minute incubation shaking at room temperature. 100 μL TMB buffer (3,3′,5,5′-tetramethylbenzidine, a chromogenic substrate for horseradish peroxidase) (Pierce 34021) was added to the plate and allowed to develop for 5-10 minutes before the samples were quenched with 50 μL 2M sulfuric acid (Sigma 258105). The absorbance was read at 450 nm on an Envision plate reader (Perkin Elmer). Results from wells (duplicate) were averaged and the 50% binding affinity calculated.
The concentration at which half-maximal binding is achieved is reported as a geometric mean with standard error in brackets. The number of independent experiments is also reported. In order to achieve a signal both ends of the molecule are required to bind (biotin to streptavidin and alpha-galactosyl to anti-alpha galactosyl antibodies) simultaneously.

Structure (SMILES)	EC50 [nM]
CC(=O)NC1C(OCCCNC(=O)COc2cccc(C(=O)NCCNC(=O)CCOCCOCCOCCOCCOCCOCCOCCOCCOCCOCCOCCOCCNC(=O)CCCCC3SCC4NC(=O)NC43)c2)OC(CO)C(OC2OC(CO)C(O)C(OC3OC(CO)C(O)C(O)C3O)C2O)C1O (centres unmarked) [Example 3]	15
CC(=O)N[C@H]1[C@H](OCCCNC(=O)c2cccc(OCC(=O)NCCNC(=O)CCCC[C@@H]3SC[C@@H]4NC(=O)N[C@@H]43)c2)O[C@H](CO)[C@@H](O[C@@H]2O[C@H](CO)[C@H](O)[C@H](O[C@H]3O[C@H](CO)[C@H](O)[C@H](O)[C@H]3O)[C@H]2O)[C@@H]1O [Example 4, N-(3-(((2R,3R,4R,5S,6R)-3-Acetamido-5-(((2S,3R,4S,5S,6R)-3,5-dihydroxy-6-(hydroxymethyl)-4-(((2R,3R,4S,5R,6R)-3,4,5-trihydroxy-6-(hydroxymethyl)tetrahydro-2H-pyran-2-yl)oxy)tetrahydro-2H-pyran-2-yl)oxy)-4-hydroxy-6-(hydroxymethyl)tetrahydro-2H-pyran-2-yl)oxy)propyl)-3-(2-oxo-2-((2-(5-((3aS,4S,6aR)-2-oxohexahydro-1H-thieno[3,4-d]imidazol-4-yl)pentanamido)ethyl)amino)ethoxy)benzamide]	13.1
CC(=O)N[C@H]1[C@H](OCCCNC(=O)COc2cccc(-c3cc(OCC(=O)NCCCO[C@@H]4O[C@H](CO)[C@@H](O[C@@H]5O[C@H](CO)[C@H](O)[C@H](O[C@H]6O[C@H](CO)[C@H](O)[C@H](O)[C@H]6O)[C@H]5O)[C@H](O)[C@H]4NC(C)=O)cc(C(=O)NCCNC(=O)CCCC[C@@H]4SC[C@@H]5NC(=O)N[C@@H]54)c3)c2)O[C@H](CO)[C@@H](O[C@@H]2O[C@H](CO)[C@H](O)[C@H](O[C@H]3O[C@H](CO)[C@H](O)[C@H](O)[C@H]3O)[C@H]2O)[C@@H]1O [Example 14]	11.9
CC(=O)N[C@H]1[C@H](OCCCNC(=O)COc2cc(OCC(=O)NCCCO[C@@H]3O[C@H](CO)[C@@H](O[C@@H]4O[C@H](CO)[C@H](O)[C@H](O[C@H]5O[C@H](CO)[C@H](O)[C@H](O)[C@H]5O)[C@H]4O)[C@H](O)[C@H]3NC(C)=O)cc(-c3cccc(-c4cccc(C(=O)NCCNC(=O)CCCC[C@@H]5SC[C@@H]6NC(=O)N[C@@H]65)c4)c3)c2)O[C@H](CO)[C@@H](O[C@@H]2O[C@H](CO)[C@H](O)[C@H](O[C@H]3O[C@H](CO)[C@H](O)[C@H](O)[C@H]3O)[C@H]2O)[C@@H]1O [Example 61]	29.9
CC(=O)N[C@H]1[C@H](OCCCNC(=O)COc2cccc(CNC(=O)CCCCC(=O)NCCNC(=O)CCCC[C@@H]3SC[C@@H]4NC(=O)N[C@@H]43)c2)O[C@H](CO)[C@@H](O[C@@H]2O[C@H](CO)[C@H](O)[C@H](O[C@H]3O[C@H](CO)[C@H](O)[C@H](O)[C@H]3O)[C@H]2O)[C@@H]1O [Example 12, N^1-(3-(2-((3-(((2R,3R,4R,5S,6R)-3-Acetamido-5-(((2S,3R,4S,5S,6R)-3,5-dihydroxy-6-(hydroxymethyl)-4-(((2R,3R,4S,5R,6R)-3,4,5-trihydroxy-6-(hydroxymethyl)tetrahydro-2H-pyran-2-yl)oxy)tetrahydro-2H-pyran-2-yl)oxy)-4-hydroxy-6-(hydroxymethyl)tetrahydro-2H-pyran-2-yl)oxy)propyl)amino)-2-oxoethoxy)benzyl)-N6-(2-(5-((3aS,4S,6aR)-2-oxohexahydro-1H-thieno[3,4-d]imidazol-4-yl)pentanamido)ethyl)adipamide]	37.3
CC(=O)N[C@H]1[C@H](OCCCNC(=O)CCOCCOCCOCCOCCNC(=O)COc2ccc(-c3cccc(C(=O)NCCNC(=O)CCOCCOCCOCCOCCOCCOCCOCCOCCOCCOCCOCCOCCNC(=O)CCCC[C@@H]4SC[C@@H]5NC(=O)N[C@@H]54)c3)cc2)O[C@H](CO)[C@@H](O[C@@H]2O[C@H](CO)[C@H](O)[C@H](O[C@H]3O[C@H](CO)[C@H](O)[C@H](O)[C@H]3O)[C@H]2O)[C@@H]1O [Example 52]	34.9
CC(=O)NC1C(OCCCNC(=O)CCOCCOCCOCCOCCNC(=O)COc2cc(OCC(=O)NCCOCCOCCOCCOCCC(=O)NCCCOC3OC(CO)C(OC4OC(CO)C(O)C(OC5OC(CO)C(O)C(O)C5O)C4O)C(O)C3NC(C)=O)cc(-c3cc(OCC(=O)NCCOCCOCCOCCOCCC(=O)NCCCOC4OC(CO)C(OC5OC(CO)C(O)C(OC6OC(CO)C(O)C(O)C6O)C5O)C(O)C4NC(C)=O)cc(C(=O)NCCNC(=O)CCCCC4SCC5NC(=O)NC54)c3)c2)OC(CO)C(OC2OC(CO)C(O)C(OC3OC(CO)C(O)C(O)C3O)C2O)C1O (centres unmarked) [Example 18]	6.7
CC(=O)N[C@H]1[C@H](OCCCNCc2cccc(C(=O)NCCNC(=O)CCCC[C@@H]3SC[C@@H]4NC(=O)N[C@@H]43)c2)O[C@H](CO)[C@@H](O[C@@H]2O[C@H](CO)[C@H](O)[C@H](O[C@H]3O[C@H](CO)[C@H](O)[C@H](O)[C@H]3O)[C@H]2O)[C@@H]1O [Example 17, 3-(((3-(((2R,3R,4R,5S,6R)-3-Acetamido-5-(((2S,3R,4S,5S,6R)-3,5-dihydroxy-6-(hydroxymethyl)-4-(((2R,3R,4S,5R,6R)-3,4,5-trihydroxy-6-(hydroxymethyl)tetrahydro-2H-pyran-2-yl)oxy)tetrahydro-2H-pyran-2-yl)oxy)-4-hydroxy-6-(hydroxymethyl)tetrahydro-2H-pyran-2-yl)oxy)propyl)amino)methyl)-N-(2-(5-((3aS,4S,6aR)-2-oxohexahydro-1H-thieno[3,4-d]imidazol-4-yl)pentanamido)ethyl)benzamide]	17.7
CC(=O)N[C@H]1[C@H](OCCCNC(=O)COc2ccc(-c3cccc(C(=O)NCCNC(=O)CCCC[C@@H]4SC[C@@H]5NC(=O)N[C@@H]54)c3)cc2)O[C@H](CO)[C@@H](O[C@@H]2O[C@H](CO)[C@H](O)[C@H](O[C@H]3O[C@H](CO)[C@H](O)[C@H](O)[C@H]3O)[C@H]2O)[C@@H]1O [Example 11]	19

More lines, now with the values ahead:

EC50 [nM]	Structure (SMILES)
22.8	CC(=O)NC1C(OCCCNC(=O)CCOCCOCCOCCOCCNC(=O)COc2cc(OCC(=O)NCCOCCOCCOCCOCCC(=O)NCCCOC3OC(CO)C(OC4OC(CO)C(O)C(OC5OC(CO)C(O)C(O)C5O)C4O)C(O)C3NC(C)=O)cc(-c3cc(OCC(=O)NCCOCCOCCOCCOCCC(=O)NCCCOC4OC(CO)C(OC5OC(CO)C(O)C(OC6OC(CO)C(O)C(O)C6O)C5O)C(O)C4NC(C)=O)cc(C(=O)NCCNC(=O)CCOCCOCCOCCOCCOCCOCCOCCOCCOCCOCCOCCOCCNC(=O)CCCCC4SCC5NC(=O)NC54)c3)c2)OC(CO)C(OC2OC(CO)C(O)C(OC3OC(CO)C(O)C(O)C3O)C2O)C1O (centres unmarked) [Example 54]
26.4	CC(=O)NC1C(OCCCNC(=O)CCOCCOCCOCCOCCOCCOCCOCCOCCOCCOCCOCCOCCNC(=O)COc2ccc(-c3cc(OCC(=O)NCCOCCOCCOCCOCCOCCOCCOCCOCCOCCOCCOCCOCCC(=O)NCCCOC4OC(CO)C(OC5OC(CO)C(O)C(OC6OC(CO)C(O)C(O)C6O)C5O)C(O)C4NC(C)=O)cc(C(=O)NCCNC(=O)CCCCC4SCC5NC(=O)NC54)c3)cc2)OC(CO)C(OC2OC(CO)C(O)C(OC3OC(CO)C(O)C(O)C3O)C2O)C1O (centres unmarked) [Example 49]
26.1	CC(=O)N[C@H]1[C@H](OCCCNC(=O)CCOCCOCCOCCOCCOCCOCCOCCOCCOCCOCCOCCOCCNC(=O)COc2cccc(C(=O)NCCNC(=O)CCOCCOCCOCCOCCOCCOCCOCCOCCOCCOCCOCCOCCNC(=O)CCCC[C@@H]3SC[C@@H]4NC(=O)N[C@@H]43)c2)O[C@H](CO)[C@@H](O[C@@H]2O[C@H](CO)[C@H](O)[C@H](O[C@H]3O[C@H](CO)[C@H](O)[C@H](O)[C@H]3O)[C@H]2O)[C@@H]1O [Example 50]
34.9	CC(=O)NC1C(OCCCNC(=O)CCOCCOCCOCCOCCNC(=O)COc2ccc(-c3cc(OCC(=O)NCCOCCOCCOCCOCCC(=O)NCCCOC4OC(CO)C(OC5OC(CO)C(O)C(OC6OC(CO)C(O)C(O)C6O)C5O)C(O)C4NC(C)=O)cc(C(=O)NCCNC(=O)CCOCCOCCOCCOCCOCCOCCOCCOCCOCCOCCOCCOCCNC(=O)CCCCC4SCC5NC(=O)NC54)c3)cc2)OC(CO)C(OC2OC(CO)C(O)C(OC3OC(CO)C(O)C(O)C3O)C2O)C1O (centres unmarked) [Example 53]
37.6	CC(=O)NC1C(OCCCNC(=O)CCOCCOCCOCCOCCNC(=O)COc2cc(OCC(=O)NCCOCCOCCOCCOCCC(=O)NCCCOC3OC(CO)C(OC4OC(CO)C(O)C(OC5OC(CO)C(O)C(O)C5O)C4O)C(O)C3NC(C)=O)cc(-c3cc(OCC(=O)NCCOCCOCCOCCOCCC(=O)NCCCOC4OC(CO)C(OC5OC(CO)C(O)C(OC6OC(CO)C(O)C(O)C6O)C5O)C(O)C4NC(C)=O)cc(C(=O)NCCOCCOCCOCCOCCC(=O)NCCNC(=O)CCCCC4SCC5NC(=O)NC54)c3)c2)OC(CO)C(OC2OC(CO)C(O)C(OC3OC(CO)C(O)C(O)C3O)C2O)C1O (centres unmarked) [Example 58]
